Results from patent US20090304692A1, “TRIAZINE COMPOUNDS AS PI3 KINASE AND MTOR INHIBITORS” (Wyeth, priority 2008, published 2009).
Where two headings read alike, the source gives them in different places.

Columns and labels:
[1] = test system: human breast MDA-MB-361 tumor cell line; test: In vitro cell culture growth assay (MTS), MDA-MB-361; type: cell-based; conditions: Homo sapiens, MTS cell growth assay, three days after drug treatment, read-out: IC50 MDA-MB-361
[2] = test system: human prostate PC3-mm2 tumor cell line; test: In vitro cell culture growth assay (MTS), PC3-mm2; type: cell-based; conditions: Homo sapiens, PC3MM2, 72 h
Human mTOR (FLAG-TOR) = Human mTOR (FLAG-TOR) (Homo sapiens, UniProt P42345); test: mTOR kinase assay (DELFIA format, purified enzyme); type: biochemical; conditions: read-out: IC50 mTOR
PI3K-γ = PI3K-γ (Homo sapiens, UniProt P48736); test: PI3K-gamma fluorescence polarization assay; conditions: read-out: IC50 PI3Kγ
PI3K-α = PI3K-α (Homo sapiens, UniProt P42336); test: PI3K-alpha fluorescence polarization assay; conditions: read-out: IC50 PI3Kα
[3] = MTS cell growth assay, three days after drug treatment, read-out: IC50 PC3-mm2
[4] = MTS cell growth assay, three days after drug treatment, PC3-mm2 cells, read-out: IC50 PC3-mm2

Human mTOR (FLAG-TOR), sequence (P42345 1360-2549 limits assumed): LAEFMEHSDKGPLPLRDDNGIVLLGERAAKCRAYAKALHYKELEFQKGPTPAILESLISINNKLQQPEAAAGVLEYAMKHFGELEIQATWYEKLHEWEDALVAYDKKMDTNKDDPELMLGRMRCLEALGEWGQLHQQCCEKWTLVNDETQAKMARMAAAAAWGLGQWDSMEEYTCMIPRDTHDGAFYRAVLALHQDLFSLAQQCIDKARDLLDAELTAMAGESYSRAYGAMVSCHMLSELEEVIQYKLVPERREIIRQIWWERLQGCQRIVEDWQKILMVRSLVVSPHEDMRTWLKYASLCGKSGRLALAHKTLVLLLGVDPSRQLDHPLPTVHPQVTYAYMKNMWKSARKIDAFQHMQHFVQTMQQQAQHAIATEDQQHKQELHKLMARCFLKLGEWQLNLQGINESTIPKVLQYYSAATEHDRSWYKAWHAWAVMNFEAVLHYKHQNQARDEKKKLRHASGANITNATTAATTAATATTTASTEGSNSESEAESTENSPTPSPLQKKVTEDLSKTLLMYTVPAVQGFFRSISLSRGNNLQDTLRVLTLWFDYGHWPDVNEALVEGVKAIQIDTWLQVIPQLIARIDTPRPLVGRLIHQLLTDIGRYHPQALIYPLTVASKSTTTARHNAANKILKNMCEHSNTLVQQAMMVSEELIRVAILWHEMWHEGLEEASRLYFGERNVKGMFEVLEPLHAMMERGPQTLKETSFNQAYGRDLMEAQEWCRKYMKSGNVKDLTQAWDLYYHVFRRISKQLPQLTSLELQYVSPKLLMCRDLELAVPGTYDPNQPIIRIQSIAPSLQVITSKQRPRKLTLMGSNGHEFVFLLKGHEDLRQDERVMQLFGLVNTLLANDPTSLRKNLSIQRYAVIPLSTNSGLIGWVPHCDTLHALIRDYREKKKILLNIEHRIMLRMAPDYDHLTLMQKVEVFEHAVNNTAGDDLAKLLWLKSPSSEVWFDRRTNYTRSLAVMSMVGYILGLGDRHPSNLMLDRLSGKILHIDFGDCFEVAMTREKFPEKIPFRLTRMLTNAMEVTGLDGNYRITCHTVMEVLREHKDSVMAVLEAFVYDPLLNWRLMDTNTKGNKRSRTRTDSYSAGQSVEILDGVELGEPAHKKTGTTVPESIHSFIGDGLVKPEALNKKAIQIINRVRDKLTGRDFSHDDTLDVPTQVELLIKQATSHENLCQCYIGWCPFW
PI3K-γ, sequence (P48736 whole entry, species assumed): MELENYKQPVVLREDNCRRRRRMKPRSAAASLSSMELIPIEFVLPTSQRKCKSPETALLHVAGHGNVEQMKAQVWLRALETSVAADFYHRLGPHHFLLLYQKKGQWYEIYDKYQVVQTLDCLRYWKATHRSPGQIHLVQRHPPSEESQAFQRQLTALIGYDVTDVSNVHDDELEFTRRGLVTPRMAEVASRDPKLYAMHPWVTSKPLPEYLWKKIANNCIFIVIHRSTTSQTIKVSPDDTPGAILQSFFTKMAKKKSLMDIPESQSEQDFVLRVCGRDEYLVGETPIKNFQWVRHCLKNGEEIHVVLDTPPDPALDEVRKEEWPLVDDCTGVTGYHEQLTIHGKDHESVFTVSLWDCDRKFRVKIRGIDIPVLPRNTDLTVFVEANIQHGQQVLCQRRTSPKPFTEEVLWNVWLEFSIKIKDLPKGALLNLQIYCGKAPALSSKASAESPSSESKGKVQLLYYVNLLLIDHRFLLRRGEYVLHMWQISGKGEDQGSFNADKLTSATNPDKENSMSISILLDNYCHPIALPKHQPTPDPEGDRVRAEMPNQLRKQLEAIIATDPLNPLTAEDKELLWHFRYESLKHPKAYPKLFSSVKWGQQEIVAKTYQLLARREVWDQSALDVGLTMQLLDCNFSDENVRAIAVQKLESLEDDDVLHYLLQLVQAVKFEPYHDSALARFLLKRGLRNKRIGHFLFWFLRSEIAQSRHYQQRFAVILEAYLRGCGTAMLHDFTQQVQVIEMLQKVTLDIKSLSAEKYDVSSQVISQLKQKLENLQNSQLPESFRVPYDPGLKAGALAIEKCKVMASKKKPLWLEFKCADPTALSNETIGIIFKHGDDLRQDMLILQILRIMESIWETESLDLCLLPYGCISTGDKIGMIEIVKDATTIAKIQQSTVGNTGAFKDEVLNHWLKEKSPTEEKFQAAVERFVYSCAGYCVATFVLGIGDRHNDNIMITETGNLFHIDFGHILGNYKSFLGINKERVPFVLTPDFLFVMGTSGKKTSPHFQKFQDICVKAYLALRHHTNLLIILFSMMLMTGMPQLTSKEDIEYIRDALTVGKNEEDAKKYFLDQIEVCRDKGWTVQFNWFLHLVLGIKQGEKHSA
PI3K-α, sequence (P42336 whole entry, species assumed): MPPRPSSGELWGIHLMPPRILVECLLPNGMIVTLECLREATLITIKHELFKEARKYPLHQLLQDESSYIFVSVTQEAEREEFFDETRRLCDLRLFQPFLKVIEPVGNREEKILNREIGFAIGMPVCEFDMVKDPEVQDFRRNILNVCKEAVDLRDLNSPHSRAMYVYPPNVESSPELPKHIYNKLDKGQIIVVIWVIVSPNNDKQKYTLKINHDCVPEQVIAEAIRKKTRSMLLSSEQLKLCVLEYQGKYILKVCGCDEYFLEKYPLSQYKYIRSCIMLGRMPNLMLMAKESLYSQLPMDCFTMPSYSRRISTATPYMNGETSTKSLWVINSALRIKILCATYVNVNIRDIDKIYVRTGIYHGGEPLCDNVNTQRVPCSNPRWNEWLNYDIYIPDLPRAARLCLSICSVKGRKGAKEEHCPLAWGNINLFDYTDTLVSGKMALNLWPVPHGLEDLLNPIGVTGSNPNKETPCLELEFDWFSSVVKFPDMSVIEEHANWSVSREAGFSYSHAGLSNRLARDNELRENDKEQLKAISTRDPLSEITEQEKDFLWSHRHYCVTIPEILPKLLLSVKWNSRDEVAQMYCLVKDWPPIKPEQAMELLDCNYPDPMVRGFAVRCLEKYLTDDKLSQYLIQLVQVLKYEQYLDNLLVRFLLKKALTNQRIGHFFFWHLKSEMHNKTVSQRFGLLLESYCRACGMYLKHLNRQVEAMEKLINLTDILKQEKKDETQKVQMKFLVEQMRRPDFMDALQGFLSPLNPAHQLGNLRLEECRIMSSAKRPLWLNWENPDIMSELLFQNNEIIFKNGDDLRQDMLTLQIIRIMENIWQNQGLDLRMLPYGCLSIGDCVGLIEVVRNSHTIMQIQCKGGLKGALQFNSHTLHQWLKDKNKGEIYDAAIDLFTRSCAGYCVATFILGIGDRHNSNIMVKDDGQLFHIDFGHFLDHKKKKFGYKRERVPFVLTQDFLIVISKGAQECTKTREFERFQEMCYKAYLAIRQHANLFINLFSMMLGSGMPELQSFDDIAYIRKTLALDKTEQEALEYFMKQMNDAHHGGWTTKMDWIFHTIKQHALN
PI3K-α, sequence (P27986 whole entry partner, species assumed): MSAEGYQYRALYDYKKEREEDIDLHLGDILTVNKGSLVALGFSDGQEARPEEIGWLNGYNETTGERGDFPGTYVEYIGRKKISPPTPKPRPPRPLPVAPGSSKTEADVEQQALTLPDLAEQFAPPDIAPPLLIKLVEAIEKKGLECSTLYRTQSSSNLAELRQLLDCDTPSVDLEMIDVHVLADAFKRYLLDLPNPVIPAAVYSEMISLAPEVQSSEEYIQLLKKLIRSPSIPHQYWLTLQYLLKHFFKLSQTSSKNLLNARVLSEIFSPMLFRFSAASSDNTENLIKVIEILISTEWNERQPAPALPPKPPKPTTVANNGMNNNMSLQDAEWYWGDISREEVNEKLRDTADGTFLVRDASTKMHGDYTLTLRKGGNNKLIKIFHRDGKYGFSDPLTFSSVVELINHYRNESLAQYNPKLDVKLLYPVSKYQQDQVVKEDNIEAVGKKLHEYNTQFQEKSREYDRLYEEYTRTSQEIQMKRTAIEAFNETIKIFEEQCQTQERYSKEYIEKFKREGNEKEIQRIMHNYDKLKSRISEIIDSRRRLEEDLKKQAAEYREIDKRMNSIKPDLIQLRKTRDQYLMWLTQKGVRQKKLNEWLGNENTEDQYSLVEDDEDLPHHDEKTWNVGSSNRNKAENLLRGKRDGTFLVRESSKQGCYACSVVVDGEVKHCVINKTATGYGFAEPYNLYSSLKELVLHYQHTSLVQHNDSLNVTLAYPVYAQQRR

Compound `O=C(Nc1ccc(C(=O)N2CCC(N3CCCCC3)CC2)cc1)Nc1ccc(-c2nc(N3CCOCC3)nc(N3CCOCC3)n2)cc1` [Example 75, 1-(4-(1,4′-bipiperidine-1′-carbonyl)phenyl)-3-(4-(4,6-dimorpholino-1,3,5-triazin-2-yl)phenyl)urea] has an IC50 ([1]; MDA-MB-361, 72 h) of less than 3 nM, an IC50 ([2]; read-out: IC50 PC3-mm2, MTS cell growth assay, three days after drug treatment) of 7 nM and an IC50 (Human mTOR (FLAG-TOR)) of 0.75 nM. The IC50 (PI3K-γ) was 10 nM and the IC50 (PI3K-α) was 0.6 nM.
`Cc1ccc(NC(=O)Nc2ccc(-c3nc(N4CCOCC4)nc(N4CC5CCC(C4)O5)n3)cc2)cc1` [Example 25, 1-(4-methylphenyl)-3-{4-[4-morpholin-4-yl-6-(8-oxa-3-azabicyclo[3.2.1]oct-3-yl)-1,3,5-triazin-2-yl]phenyl}urea] was tested, and the IC50 ([1]; MDA-MB-361, 72 h) was 264 nM, the IC50 [2, 3] was 258 nM and the IC50 (Human mTOR (FLAG-TOR)) was 4.05 nM. It also gave an IC50 (PI3K-γ) of 105 nM and an IC50 (PI3K-α) of 58 nM.
`CN(C)c1ccc(NC(=O)Nc2ccc(-c3nc(N4CCOCC4)nc(N4CCC5(CC4)OCCO5)n3)cc2)cc1` [Example 133, 1-[4-(dimethylamino)phenyl]-3-{4-[4-(1,4-dioxa-8-azaspiro[4.5]dec-8-yl)-6-morpholin-4-yl-1,3,5-triazin-2-yl]phenyl}urea] gave an IC50 ([1]; MDA-MB-361, 72 h) of 795 nM, an IC50 [2, 4] of 1950 nM and an IC50 [2, 3] of 1950 nM. For the same compound, the IC50 (Human mTOR (FLAG-TOR)) was 43 nM, the IC50 (PI3K-γ) was 8890 nM and the IC50 (PI3K-γ; listed as 708) was 8890 nM. The IC50 (PI3K-α) was 39 nM and the IC50 (PI3K-α; listed as 708) was 39.5 nM.
In the case of `N#Cc1ccc(NC(=O)Nc2ccc(-c3nc(N4CCOCC4)nc(N4CCC5(CC4)OCCO5)n3)cc2)cc1` [Example 134, 1-(4-cyanophenyl)-3-{4-[4-(1,4-dioxa-8-azaspiro[4.5]dec-8-yl)-6-morpholin-4-yl-1,3,5-triazin-2-yl]phenyl}urea], the IC50 ([1]; MDA-MB-361, 72 h) is reported as 805 nM, the IC50 [2, 4] is reported as 857 nM and the IC50 [2, 3] is reported as 857 nM. The IC50 (Human mTOR (FLAG-TOR)) was 24.5 nM, the IC50 (PI3K-γ) was 183 nM and the IC50 (PI3K-γ; listed as 709) was 182 nM. It also gave an IC50 (PI3K-α) of 20 nM.
Compound `CN(C)CCCc1nc(-c2ccc(NC(=O)Nc3ccncc3)cc2)nc(N2CCOCC2)n1` [Example 274, 1-(4-{4-[3-(dimethylamino)propyl]-6-morpholin-4-yl-1,3,5-triazin-2-yl}phenyl)-3-pyridin-4-ylurea] has an IC50 ([1]; MDA-MB-361, 72 h) of 1000 nM, an IC50 [2, 4] of 1490 nM and an IC50 [2, 3] of 1490 nM. It also gave an IC50 (Human mTOR (FLAG-TOR)) of 59 nM, an IC50 (PI3K-γ) of 616 nM and an IC50 (PI3K-γ; listed as 731) of 413 nM. The IC50 (PI3K-α) was 34 nM and the IC50 (PI3K-α; listed as 731) was 33 nM.
With `CCc1nc(-c2ccc(NC(=O)Nc3ccc(C(=O)N4CCNC(C)(C)C4)cc3)cc2)nc(N2CCOCC2)n1` [Example 298, 1-{4-[(3,3-dimethylpiperazin-1-yl)carbonyl]phenyl}-3-[4-(4-ethyl-6-morpholin-4-yl-1,3,5-triazin-2-yl)phenyl]urea] the IC50 ([1]; MDA-MB-361, 72 h) was 38 nM, the IC50 [2, 3] was 165 nM and the IC50 (Human mTOR (FLAG-TOR)) was 21 nM. It also gave an IC50 (PI3K-γ) of 24 nM and an IC50 (PI3K-α) of 2 nM.
For `O=C(Nc1ccc(C(=O)N2CCSCC2)cc1)Nc1ccc(-c2nc(N3CCOCC3)nc(N3C4CCC3COC4)n2)cc1` [Example 762, 1-{4-[4-morpholin-4-yl-6-(3-oxa-8-azabicyclo[3.2.1]oct-8-yl)-1,3,5-triazin-2-yl]phenyl}-3-[4-(thiomorpholin-4-ylcarbonyl)phenyl]urea], the IC50 ([1]; MDA-MB-361, 72 h, MDA-MB-361 cells) was 8 nM, the IC50 [2, 4] was 7 nM and the IC50 (Human mTOR (FLAG-TOR)) was 0.428 nM. The IC50 (PI3K-γ) was 19.7 nM and the IC50 (PI3K-α) was 2.7 nM.
For `CCCCc1nc(-c2ccc(NC(=O)Nc3ccc(CO)cc3)cc2)nc(N2CCOCC2)n1` [Example 239, 1-[4-(4-butyl-6-morpholin-4-yl-1,3,5-triazin-2-yl)phenyl]-3-[4-(hydroxymethyl)phenyl]urea], the IC50 ([1]; MDA-MB-361, 72 h) was 184 nM, the IC50 [2, 3] was 317 nM and the IC50 (Human mTOR (FLAG-TOR)) was 3.2 nM. It also gave an IC50 (PI3K-γ) of 38 nM and an IC50 (PI3K-α) of 11 nM.
Compound `Cc1ccc(-c2nc(-c3ccc(NC(=O)Nc4ccc(C(=O)NCCCN(C)C)cc4)cc3)nc(N3CCOCC3)n2)cc1` [Example 554, N-[3-(dimethylamino)propyl]-4-[({4-[4-(4-methylphenyl)-6-morpholin-4-yl-1,3,5-triazin-2-yl]phenyl}carbamoyl)amino]benzamide] has an IC50 ([1]; 72 h, MDA-MB-361 cells) of 521 nM, an IC50 [2, 4] greater than 1000 nM and an IC50 (Human mTOR (FLAG-TOR)) of 11.9 nM. For the same compound, the IC50 (PI3K-γ) was 156 nM and the IC50 (PI3K-α) was 15 nM.
